Among the data in ChEMBL document CHEMBL4118100, “High Mobility Group Box-1 (HMGb1): Current Wisdom and Advancement as a Potential Drug Target” (J Med Chem, 2018) are Kd values, retold here.

Residues, ends and D or L forms follow the SMILES beside them.

For test [1], the target named is Toll-like receptor 4/MD-2 (Homo sapiens, UniProt O00206+Q9Y6Y9). The experiment in a line: Binding affinity to recombinant human 10His-tagged TLR4 (24 to 631 residues)/recombinant human 10His-tagged MD2 (17 to 160 residues) after 5 mins by SPR assay. Type of test: protein-complex assay.
Sequence of Toll-like receptor 4/MD-2 (O00206 whole entry, the tested form may be a part): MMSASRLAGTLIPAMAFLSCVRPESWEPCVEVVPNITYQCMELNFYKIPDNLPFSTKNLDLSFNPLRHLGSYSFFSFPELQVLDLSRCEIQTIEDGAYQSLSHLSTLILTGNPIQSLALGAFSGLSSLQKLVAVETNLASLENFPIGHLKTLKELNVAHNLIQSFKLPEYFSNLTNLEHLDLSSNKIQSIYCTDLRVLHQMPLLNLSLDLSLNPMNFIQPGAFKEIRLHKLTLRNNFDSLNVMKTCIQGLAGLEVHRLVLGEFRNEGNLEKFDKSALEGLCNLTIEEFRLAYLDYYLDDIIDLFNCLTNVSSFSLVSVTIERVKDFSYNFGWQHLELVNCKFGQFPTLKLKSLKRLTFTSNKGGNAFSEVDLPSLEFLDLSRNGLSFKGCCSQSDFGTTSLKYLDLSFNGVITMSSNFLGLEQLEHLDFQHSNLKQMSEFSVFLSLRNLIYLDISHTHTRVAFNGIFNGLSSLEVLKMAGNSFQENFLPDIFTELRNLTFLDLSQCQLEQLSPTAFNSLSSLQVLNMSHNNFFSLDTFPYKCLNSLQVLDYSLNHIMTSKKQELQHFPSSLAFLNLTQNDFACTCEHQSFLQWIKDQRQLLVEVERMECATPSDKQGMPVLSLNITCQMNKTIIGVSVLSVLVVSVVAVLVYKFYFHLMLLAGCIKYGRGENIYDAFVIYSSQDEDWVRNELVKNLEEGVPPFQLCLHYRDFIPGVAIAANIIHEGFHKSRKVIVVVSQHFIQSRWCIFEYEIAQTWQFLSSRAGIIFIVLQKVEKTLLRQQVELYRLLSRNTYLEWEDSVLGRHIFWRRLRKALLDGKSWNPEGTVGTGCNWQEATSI
Sequence of Toll-like receptor 4/MD-2 (Q9Y6Y9 whole entry, the tested form may be a part): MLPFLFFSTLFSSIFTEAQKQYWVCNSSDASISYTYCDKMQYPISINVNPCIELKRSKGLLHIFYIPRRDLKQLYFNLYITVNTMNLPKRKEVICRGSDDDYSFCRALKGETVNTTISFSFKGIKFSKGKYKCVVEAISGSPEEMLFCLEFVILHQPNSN
For test [2], the target named is T1, High mobility group protein B1 (Homo sapiens, UniProt P09429).
T1 sequence (P09429 whole entry): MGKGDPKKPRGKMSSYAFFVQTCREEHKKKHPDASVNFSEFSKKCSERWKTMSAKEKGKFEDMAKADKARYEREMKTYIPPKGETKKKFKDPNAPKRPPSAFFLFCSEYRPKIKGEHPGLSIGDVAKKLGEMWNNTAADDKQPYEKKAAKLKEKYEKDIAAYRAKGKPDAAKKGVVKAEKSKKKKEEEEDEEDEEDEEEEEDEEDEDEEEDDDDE
The test is described as follows: Binding affinity to recombinant HMGB1 B box region (90 to 175 residues) (unknown origin) expressed Escherichia coli after 5 mins by fluorescence-based assay.

Test [3] deals with T1, High mobility group protein B1. The experiment in a line: Binding affinity to recombinant HMGB1 A box region (1 to 89 residues) (unknown origin) expressed Escherichia coli after 5 mins by fluorescence-based assay.
Test [4] has the same target. The test is described as follows: Binding affinity to N-terminal 6His-tagged HMGB1 AI region (1 to 87 residues) (unknown origin) expressed in Escherichia coli JM109 by SPR assay.
The target is the same in test [5]. The experiment in a line: Binding affinity to N-terminal 6His-tagged HMGB1 Bj region (88 to 181 residues) (unknown origin) expressed in Escherichia coli JM109 by SPR assay.
The target is the same in test [6]. The test is described as follows: Binding affinity to recombinant HMGB1 box B (unknown origin).
Test [7] has the same target. The experiment in a line: Binding affinity to recombinant HMGB1 box A (unknown origin).

Regarding `CSCC[C@H](NC(=O)[C@H](C)N)C(=O)N[C@@H](C)C(=O)N[C@@H](CC(C)C)C(=O)N[C@@H](CC(=O)O)C(=O)N[C@@H](CS)C(=O)N[C@@H](Cc1ccccc1)C(=O)N[C@@H](CCCNC(=N)N)C(=O)N[C@@H](Cc1c[nH]c2ccccc12)C(=O)NCC(=O)N[C@@H](Cc1c[nH]c2ccccc12)C(=O)N[C@@H](CCCNC(=N)N)C(=O)N[C@@H](CCSC)C(=O)N[C@@H](Cc1c[nH]c2ccccc12)C(=O)N[C@@H](CS)C(=O)N[C@@H](CO)C(=O)N[C@@H](CO)C(=O)NCC(=O)O` (H-AMALDCFRWGWRMWCSSG-OH), in test [1], the Kd was determined as 5.95 µM.

Turning to `CC1(C)[C@@H](O[C@H]2O[C@H](C(=O)O)[C@@H](O)[C@H](O)[C@H]2O[C@@H]2O[C@H](C(=O)O)[C@@H](O)[C@H](O)[C@H]2O)CC[C@]2(C)[C@H]3C(=O)C=C4[C@@H]5C[C@@](C)(C(=O)O)CC[C@]5(C)CC[C@@]4(C)[C@]3(C)CC[C@@H]12` [GLYCYRRHIZIN], the Kd is 87 µM in test [2] and 103 µM in test [3]. As for `CN(Cc1cnc2nc(N)nc(N)c2n1)c1ccc(C(=O)N[C@@H](CCC(=O)O)C(=O)O)cc1` [METHOTREXATE], the figures for the Kd in test [4] and in test [5] were 0.5 µM and 0.024 µM, respectively. For the molecule `O=C(O)c1ccccc1O` [SALICYLIC ACID], the dissociation constant Kd in test [6] and in test [7] was 1 to 10 µM in each case.
